Structures are written as SMILES.

The subject of the test is osteoclast differentiation. Nature of the test: Inhibitory effects on osteoclast differentiation (co-culture of bone marrow cells with osteoblast, TRAP staining). As to conditions: Mus musculus, Osteoclast, 168 h; 1 m; co-culture of bone marrow cells and osteoblast, 7 days, TRAP-positive osteoclasts versus controls; read-out: % inhibitory activity on osteoclastogenesis. It counts as cell-based, mice. How it is done:
The effect of benzamidine derivatives of the present invention on osteoclast proliferation and differentiation process was evaluated via co-culture with osteoblast.
Tibia and Femora were aseptically ectomized from male ddY mice of 6-8 weeks to harvest bone marrow cells by using a syringe (21G, Korea Green Cross).
The bone marrow cells were suspended in 5 mL α-MEM medium (Gibco BRL Co.) containing sodium bicarbonate (2.0 g/L), streptomycin (100 mg/L) and penicillin ([…]). The harvested cells were centrifuged at 600×g for 5 mins to collect the whole quantity. To remove the red blood cells within bone marrow cells, 3 mL of Tris HCl (0.83% NH4Cl, pH7.5) was added and well mixed. After centrifuging above cells, the numbers of bone marrow cells were counted and then, the bone marrow cells were immediately used for co-culture system with osteoblast.
The calvaria were aseptically ectomized from neonate ICR mice of 1˜2 days, washed with PBS solution and incubated with a mixture of enzyme solution (0.2% collagenase and 0.1% dispase) at 37° C. gentle shaker. This procedure was sequentially repeated (10, 10, 10, 20, 20 and 20 mins), and then the calvaria cells having the characteristics of osteoblast mostly released from III-VI digestion groups were collected and washed with the medium (serum-free α-MEM). The washed cells were cultivated in α-MEM medium containing 10% FBS for 2˜3 days. After subculturing, these cells were used for this experiment, and diluted to reach the concentration of 1×10^6 cell/mL for storage at −70° C.
Benzamidine derivatives of the present invention were dissolved in a sterile distilled water or ethanol to make desired concentrations following dilution. The final volume of specimen added to the medium was determined at the ratio of 1:1000.
Bone marrow cells prepared, in the above and osteoblast from calvaria were co-cultured for osteoclast differentiation. Both bone marrow cells (25,000 cells/cm^2) and osteoblast (10,000 cells/cm^2) were plated on a 96 well plate in α-MEM medium containing FBS with specimen, and then cultured with test materials for 7 days. Differentiation factors, such as dexamethasone (10^−7M) and vitamin D3 (10^−8M), were also continuously added to the medium from the first day of cultivation. The medium was changed with fresh media containing a mixture of specimens and differentiation factors every 2˜3 day.
TRAP was used as a marker to measure osteoclast in consideration of its characteristics showing a positive reaction to TRAP staining solution. TRAP staining solution was prepared in a manner that 5 mg of naphtol AS-MS phosphate (sigma N-4875), a substrate and 25 mg of coloring agent (Fast Red Violet LB salt) were dissolved in N,N-dimethylformamide (about 0.5 mL), 0.1N NaHCO3 buffer solution (50 mL) containing 50 mM tartaric acid was added, and the reaction mixture was stored at refrigerator prior to use.
After culturing the cells for 7 days, the medium was removed from the wells, the cells were once washed with PBS solution and fixed to PBS containing 10% formalin for 2˜5 mins. The cells were fixed again in a mixed solution of ethanol and acetone (1/1) for about 1 min, and dried off. The cells were further treated by TRAP staining solution for 15 mins and washed with PBS. The experimental results were measured by counting the number of osteoclasts with 3 or more nuclei showing TRAP-positive reaction under a microscopic examination. Each of tests was confirmed over three times for gaining more reliable data.
As shown in the following table 7, the inhibitory effect of each experimental group on the differentiation of osteoclast versus controls was expressed by inhibitory percentage value.
In the case of `CCS(=O)(=O)Nc1nc(-c2ccc(OCCCCCOc3ccc(C(=N)NO)cc3)cc2)cs1` [Example 85, N-hydroxy-4-(5-[4-(2-ethanesulfonylamino-1,3-thiazol-4-yl)phenoxy]pentoxy)-benzamidine], the inhibition at 1 µM was 5.3%.

Turning to `N=C(NO)c1ccc(OCCCCCOc2ccc(-c3nc(NC(=O)c4cccnc4)sc3CC3CCCC3)cc2)cc1` [Example 89, N-hydroxy-4-(5-[4-(5-cyclopentylmethyl-2-(3-pyridylcarbonyl)amino-1,3-thiazol-4-yl)phenoxy]pentoxy)-benzamidine], the inhibition at 1 µM worked out at 81.2%.

Turning to `Cc1sc(NC(=O)CO)nc1-c1ccc(OCCCCCOc2ccc(C(=N)NO)cc2)cc1` [Example 90, N-hydroxy-4-(5-[4-(2-hydroxyacetylamino-5-methyl-1,3-thiazol-4-yl)phenoxy]pentoxy)-benzamidine], the inhibition at 1 µM turned out to be 61.9%.

As to `Cc1sc(NC(=O)c2cccnc2)nc1-c1ccc(OCCCCCOc2ccc(C(=N)NO)cc2)cc1` [Example 92, N-hydroxy-4-(5-[4-(5-methyl-2-(3-pyridylcarbonyl)amino-1,3-thiazol-4-yl)phenoxy]pentoxy)-benzamidine], the inhibition at 1 µM turned out to be 49%.

Consider `COCCNc1nc(-c2ccc(OCCCCCOc3ccc(C(=N)NO)cc3)cc2)c(C)s1` [Example 94, N-hydroxy-4-(5-(4-(2-(2-methoxyethyl)amino-5-methyl-1,3-thiazol-4-yl)phenoxy]pentoxy)-benzamidine], for which the inhibition at 1 µM came to 77.2%.

Turning to `CCc1sc(NS(=O)(=O)CC)nc1-c1ccc(OCCCCCOc2ccc(C(=N)NO)cc2)cc1` [Example 95, N-hydroxy-4-(5-[4-(2-ethanesulfonylamino-5-ethyl-1,3-thiazol-4-yl)phenoxy]pentoxy)-benzamidine], the inhibition at 1 µM came out at 47.1%.

As to `CCNc1nc(-c2ccc(OCCCCCOc3ccc(C(=N)NO)cc3)cc2)c(CC)s1` [Example 97, N-hydroxy-4-(5-[4-(5-ethyl-2-ethylamino-1,3-thiazol-4-yl)phenoxy]pentoxy)-benzamidine], the inhibition at 1 µM turned out to be 42.6%.

For `CCc1sc(NC(=O)c2cccnc2)nc1-c1ccc(OCCCCCOc2ccc(C(=N)NO)cc2)cc1` [Example 101, N-hydroxy-4-(5-[4-(5-ethyl-2-(3-pyridylcarbonyl)amino-1,3-thiazol-4-yl)phenoxy]pentoxy)-benzamidine], the inhibition at 1 µM was 43.7%.

As to `CCc1sc(NCCOC)nc1-c1ccc(OCCCCCOc2ccc(C(=N)NO)cc2)cc1` [Example 102, N-hydroxy-4-(5-[4-(5-ethyl-2-(2-methoxyethyl)amino-1,3-thiazol-4-yl)phenoxy]pentoxy)-benzamidine], the inhibition at 1 µM came out at 96.4%.

`CNc1nc(-c2ccc(OCCCCCOc3ccc(C(=N)NO)cc3)cc2)c(C(C)C)s1` [Example 103, N-hydroxy-4-(5-[4-(5-isopropyl-2-methylamino-1,3-thiazol-4-yl)phenoxy]pentoxy)-benzamidine]: the inhibition at 1 µM turned out to be 25.4%.

Turning to `CCNc1nc(-c2ccc(OCCCCCOc3ccc(C(=N)NO)cc3)cc2)c(C(C)C)s1` [Example 104, N-hydroxy-4-(5-[4-(2-ethylamino-5-isopropyl-1,3-thiazol-4-yl)phenoxy]pentoxy)-benzamidine], the inhibition at 1 µM worked out at 40%.

For the compound `CCCCc1sc(NC)nc1-c1ccc(OCCCCCOc2ccc(C(=N)NO)cc2)cc1` [Example 105, N-hydroxy-4-(5-[4-(5-butyl-2-methylamino-1,3-thiazol-4-yl)phenoxy]pentoxy)-benzamidine], the inhibition at 1 µM came out at 61.1%.

Take `CCCCc1sc(NCC)nc1-c1ccc(OCCCCCOc2ccc(C(=N)NO)cc2)cc1` [Example 106, N-hydroxy-4-(5-[4-(5-butyl-2-ethylamino-1,3-thiazol-4-yl)phenoxy]pentoxy)-benzamidine]: the inhibition at 1 µM was determined as 0%.

Consider `CCNc1nc(-c2ccc(OCCCCCOc3ccc(C(=N)NO)cc3)cc2)c(Cc2ccccc2)s1` [Example 108, N-hydroxy-4-(5-[4-(5-benzyl-2-ethylamino-1,3-thiazol-4-yl)phenoxy]pentoxy)-benzamidine], for which the inhibition at 1 µM was 25.4%.

The values are drawn from patent US8178688B2, “Benzamidine derivatives, process for the preparation thereof and pharmaceutical composition comprising the same” (Dong Wha Pharmaceutical Co., Ltd., priority 2004, dated 2012).
